Data: the OPERA property sets (Mansouri et al. 2018)
Where a SMILES comes first, the peptide text is derived from it.

Structure (SMILES) | logP
COC(=O)C(C)=CC1C(C(=O)OCc2cccc(C#N)c2)C1(C)C (configuration not stated) | 3.83
CC(C)SCc1cc(=O)c(O)co1 | 1.17
Cc1cccc(Cc2c[nH]cn2)c1 | 2.39
CCCc1nc(N(C)C)nc(N2CCOCC2)n1 | 1.64
CC(C)NC(=NC#N)NS(=O)(=O)c1cnccc1NC1CCCCCCC1 | 2.58
O=C1c2ccccc2OCN1CCO[N+](=O)[O-] | 1.85
CCCCCNCc1ccc(C)cc1 | 4.26
CC(C)C(N)C(=O)NC(C(=O)O)C(C)C (stereo not drawn) (H-Val-Val-OH; configuration not given here) | -2.82
CC(C)(C)[N+]([O-])=Cc1ccccc1O | 1.3
COc1ccc(O)c(C2=NC(C(=O)O)CS2)c1 (configuration not stated) | 1.6
O=C1C=C(N2CCOCC2)C(=O)N1c1ccc(Cl)cc1 | 2.3
CCNC(=O)NS(=O)(=O)c1cnccc1NC1CCCCCCC1 | 3.57
Clc1cc(Cl)c2c(oc3cccc(Cl)c32)c1Cl | 5.89
COc1cc(S(C)=O)ccc1-c1cn2cc(N)cnc2n1 (configuration not stated) | 0.37
CC1CCCCC1NC(=O)N1C(=O)N(C)CC1O (configuration not stated) | 2.2
O=C1c2ccccc2-c2nncc(-c3ccccc3)c21 | 2.8
O=C1c2ccc(O)cc2OCN1CCO[N+](=O)[O-] | 1.63
CCOC(=O)CC(C(=O)OC)S(=O)(=O)c1ccc([N+](=O)[O-])cc1 (configuration not stated) | 1.4
Clc1ccc(C2(Cn3cncn3)OCC3(CCC4OC4C3)CO2)c(Cl)c1 (configuration not stated) | 1.87
CC(=O)c1cc2ccc3cccc4ccc(c1)c2c34 | 4.29
CCC(C)C(NC(=O)C(Cc1ccccc1)NC(=O)C(CCSC)NC(=O)C(N)C(C)C)C(=O)O (configuration not stated) (H-VMFI-OH; configuration not given here) | -0.63

Structure (SMILES) | logP
CC(C)C(NC(=O)C(N)Cc1ccccc1)C(=O)NC(Cc1ccccc1)C(=O)O (stereo not drawn) (H-Phe-Val-Phe-OH; configuration not given here) | -0.76
COC(=O)Nc1c(C)cccc1C | 1.69
O=c1ccc2cc3ccsc3cc2s1 | 2.96
O=c1ccc(/C=C/c2ccc(-n3ccnc3)cc2)n[nH]1 | 1.21
C[N+](C)([O-])CCCCc1ccccc1 | 0.46
CCNc1[nH]cnc2ncnc1-2 | 0.92
COc1ccc(C2Cc3cc(C(F)(F)F)ccc3N(CCN(C)C)C(=O)C2NC(C)=O)cc1 (configuration not stated) | 3.6
Clc1c(Br)cccc1N=C1NCCN1 | 1.82
CCC1C(=O)N(CCN(C)C)c2cccc(C(F)(F)F)c2CC1c1ccc(OC)cc1 (configuration not stated) | 6.3
CCOC(=O)c1c(O)c2ccc(Cl)cc2[nH]c1=O | 2.6
CNc1ccc(-c2cn3cc(SC)ccc3n2)cc1 | 3.9
COC(=O)C(C)S(=O)(=O)c1ccc([N+](=O)[O-])cc1 (configuration not stated) | 1.06
O=C1CN=C(c2ccccc2)c2ccc(C(F)(F)F)cc2N1 | 3.18
Cc1nc2ccccc2c(=O)n1CCC(=O)O | 0.93
OCC1OC(n2cnc3c(NCCCCc4ccccc4)ncnc32)C(O)C1O (configuration not stated) | 2.29
O=C(Cc1ccccc1)Nc1[nH]cnc2ncnc1-2 | 1.19
CCNc1nc(O)nc(NC(C)(C)C)n1 | 3.53
CC12CCC(c3c1ssc3=S)C2(C)C (configuration not stated) | 3.8
CC(C)NC(=NC#N)NS(=O)(=O)c1cnccc1NC1CCCCCCCCCCC1 | 4.51
O=[N+]([O-])c1ccc2c(c1)-c1ccccc1C2 | 3.99
CCC(=O)[C@@]1(C)CC[C@H]2[C@@H]3CCC4=CC(=O)CCC4=C3CC[C@@]21C | 4.04

Structure (SMILES) | logP
C[N+](C)([O-])Cc1ccccc1 | -0.57
CNC(=S)NN=C(C)CSCC(C)=NNC(=S)NC | 1.38
CN1CCN(c2cc3c(cc2F)c(=O)c(C(=O)O)cn3C2CC2)CC1 | 0.15
O=c1ccc(/C=C/c2ccc(-n3cnc4c3CCCC4)cc2)n[nH]1 | 2.47
C#CCNc1nc(CCC)nc(N2CCOCC2)n1 | 2.3
O=[N+]([O-])c1nccn1CC(O)COCF (configuration not stated) | -0.4
Cc1cccc(Cc2cnc[nH]2)c1C | 2.68
CC(=O)OCC1=C(C(=O)O)N2C(=O)[C@@H](NC(=O)Cc3ccccc3)[C@H]2SC1 | 0.2
CN1CCc2ccccc2C1 | 2.14
CCN(CC)C(=O)[C@]1(c2ccccc2)C[C@@H]1CN | 2.03
Cc1ccc2c(c1)COP(=O)(OCC1C=CC(n3cc(C)c(=O)[nH]c3=O)O1)O2 (configuration not stated) | 0.73
O=c1[nH]c2cc(Cl)ccc2c(O)c1-c1cccc(Oc2ccccc2)c1 | 5.1
Cc1cc2c(C)cc3oc(=O)cc(C)c3c2o1 | 3.25
CC(=NNC(=S)N(C)C)c1cc(C)ccc1O | 2.26
NS(=O)(=O)c1ncncc1-c1ccccc1 | 0.5
O=C(O)CCC(=O)OC1Cc2c(O)cc(O)cc2OC1c1ccc(O)c(O)c1 (configuration not stated) | 1.41
CC(=O)OC(C)(C)C1CCC2(C)CCCC(=O)C2C1 (configuration not stated) | 3.2
COCOc1ccc(Cc2cccc(-c3c(O)c4ccc(Cl)cc4[nH]c3=O)c2)cc1 | 5.24
O=C(Nc1ccccc1)NC1CC(C(=O)O)Nc2cc(Cl)cc(Cl)c21 (configuration not stated) | 3.28
Cc1cc2c(o1)c(C)cc1ccc(=O)oc12 | 2.85
